Measurements: ChEMBL document CHEMBL5032489, “Selective Discovery of GPCR Ligands within DNA-Encoded Chemical Libraries Derived from Natural Products: A Case Study on Antagonists of Angiotensin II Type I Receptor” (J Med Chem, 2021)
Values belong to the molecule of their own block, whether it stands above or below them. Activity calls are given as the source filed them. The rule behind the calls is not given here.

Experiments:
[1] = target: T1, Type-1 angiotensin II receptor (Homo sapiens, UniProt P30556); experiment: (§1) Displacement of [125-I]-[Sar1, AngII from AT1R (unknown origin) expressed in Escherichia coli BL 21 (DE3) incubated for 2 hrs by radioimmunoassay
T1 sequence (P30556 whole entry): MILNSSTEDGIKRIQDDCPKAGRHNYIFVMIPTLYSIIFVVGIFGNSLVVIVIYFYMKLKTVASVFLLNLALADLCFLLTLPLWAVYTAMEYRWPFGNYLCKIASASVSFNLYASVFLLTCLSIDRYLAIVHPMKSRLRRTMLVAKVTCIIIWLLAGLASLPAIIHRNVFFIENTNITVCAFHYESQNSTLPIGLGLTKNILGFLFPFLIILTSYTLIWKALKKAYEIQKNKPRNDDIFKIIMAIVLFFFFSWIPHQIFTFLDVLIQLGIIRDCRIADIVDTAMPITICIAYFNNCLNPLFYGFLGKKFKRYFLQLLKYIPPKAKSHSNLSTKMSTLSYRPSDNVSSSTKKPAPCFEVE

Rattus norvegicus [2] = experiment: Antihypertensive activity against two-kidney two clip renovascular hypertensive Sprague-Dawley rat model assessed as decrease in systolic blood pressure at 8.3 mg/kg, po measured after 4 days of treatment by noninvasive sphygmomanometry; type: functional, organism-based; conditions: time 4.0 day
[3] = target: T1, Type-1 angiotensin II receptor; experiment: Binding affinity to AT1R (unknown origin) expressed in Escherichia coli strain BL 21 (DE3) incubated for 20 mins by SDS PAGE analysis
Rattus norvegicus [4] = experiment: Antihypertensive activity against two-kidney two clip renovascular hypertensive Sprague-Dawley rat model assessed as decrease in diastolic blood pressure at 15 to 30 mg/kg, po measured after 4 days of treatment by noninvasive sphygmomanometry; type: functional, organism-based; conditions: dose 15-30 mg/kg, time 4.0 day
[5] = Cmax in two-kidney two clip renovascular hypertensive Sprague-Dawley rat model at 30 mg/kg, po by HPLC-MS/MS analysis; type: ADME, organism-based; parameters: route oral, dose 30 mg/kg; conditions: in vivo
[6] = Cmax in two-kidney two clip renovascular hypertensive Sprague-Dawley rat model at 15 mg/kg, po by HPLC-MS/MS analysis; type: ADME, organism-based; parameters: route oral, dose 15 mg/kg; conditions: in vivo
[7] = Cmax in two-kidney two clip renovascular hypertensive Sprague-Dawley rat model at 5 mg/kg, po by HPLC-MS/MS analysis; type: ADME, organism-based; parameters: route oral, dose 5 mg/kg; conditions: in vivo
[8] = AUC (0-t) in two-kidney two clip renovascular hypertensive Sprague-Dawley rat model at 30 mg/kg, po by HPLC-MS/MS analysis; type: ADME, organism-based; parameters: dose 30 mg/kg; conditions: in vivo
[9] = AUC (0-t) in two-kidney two clip renovascular hypertensive Sprague-Dawley rat model at 15 mg/kg, po by HPLC-MS/MS analysis; type: ADME, organism-based; parameters: dose 15 mg/kg; conditions: in vivo
[10] = AUC (0-t) in two-kidney two clip renovascular hypertensive Sprague-Dawley rat model at 5 mg/kg, po by HPLC-MS/MS analysis; type: ADME, organism-based; parameters: dose 5 mg/kg; conditions: in vivo
[11] = AUC (0-infinity) in two-kidney two clip renovascular hypertensive Sprague-Dawley rat model at 30 mg/kg, po by HPLC-MS/MS analysis; type: ADME, organism-based; parameters: route oral, time infinity, dose 30 mg/kg; conditions: in vivo
[12] = AUC (0-infinity) in two-kidney two clip renovascular hypertensive Sprague-Dawley rat model at 15 mg/kg, po by HPLC-MS/MS analysis; type: ADME, organism-based; parameters: time infinity, route oral, dose 15 mg/kg; conditions: in vivo
[13] = AUC (0-infinity) in two-kidney two clip renovascular hypertensive Sprague-Dawley rat model at 5 mg/kg, po by HPLC-MS/MS analysis; type: ADME, organism-based; parameters: route oral, time infinity, dose 5 mg/kg; conditions: in vivo
Rattus norvegicus [14] = experiment: Antihypertensive activity against two-kidney two clip renovascular hypertensive Sprague-Dawley rat model assessed as decrease in systolic blood pressure at 15 to 30 mg/kg, po measured after 4 days of treatment by noninvasive sphygmomanometry; type: functional, organism-based; conditions: dose 15-30 mg/kg, time 4.0 day
[15] = Toxicity in two-kidney two clip renovascular hypertensive Sprague-Dawley rat model assessed as heart rate at 15 to 30 mg/kg, po measured after 4 days of treatment by noninvasive sphygmomanometry; type: organism-based; conditions: in vivo, 96 h, dose 15-30 mg/kg, time 4 day
[16] = target: T2, Type-1 angiotensin II receptor (Homo sapiens) (UniProt P30556); experiment: as §1
T2 sequence (whole entry): T1 sequence (P30556 whole entry)

IC50 [1]: 125 nM
Compound: O=C(O)/C=C/c1ccc(O)c(O)c1 [CAFFEIC ACID]

Compound: CCCCC(=O)N(Cc1ccc(-c2ccccc2-c2nnn[nH]2)cc1)[C@H](C(=O)O)C(C)C
Activity (Rattus norvegicus [2]): Active

Kd [3]: 0.49 nM | IC50 [1]: 19.6 nM | Cmax [5]: 446 ng/mL | Cmax [6]: 220 ng/mL | Cmax [7]: 80.6 ng/mL | AUCt [8]: 34243 µg·min/L | AUCt [9]: 18123.5 µg·min/L | AUCt [10]: 5707.6 µg·min/L | AUC [11]: 35096.1 µg·min/L | AUC [12]: 19332.5 µg·min/L | AUC [13]: 6088 µg·min/L
Compound: CCOC(=O)[C@@H](Cc1ccc(F)cc1)NC(=O)[C@@H](CC1CCCCC1)NC(=O)[C@@H](C)NC(=O)/C=C/c1ccc(O)c(O)c1
Activity (Rattus norvegicus [4]): Active | Activity (Rattus norvegicus [14]): Active | Activity [15]: Non-Toxic

Activity [16]: inactive
Compound: NC[C@H](O)c1ccc(O)c(O)c1

Activity [16]: inactive
Compound: Cc1cc(Cn2cnc3c2C[C@@H](C(=O)O)N(C(=O)C(c2ccccc2)c2ccccc2)C3)ccc1N(C)C
